Experimental data: patent US8912188B2, “Substituted quinoxaline carboxylic acids for the inhibition of PASK” (BioEnergenix, LLC, priority 2011, dated 2014)

These molecules were tested against T1, PASK (Invitrogen) (Homo sapiens, UniProt Q96RG2) (assay: PAS Kinase FRET Assay). Details: PAS kinase TR-FRET assay (665 nm/615 nm), 2 hours at 25° C.; read-out: IC50 Kinase Domain.
T1 construct: IC50 Kinase Domain; purchased Invitrogen
Format: biochemical
Text: Biochemical Assay for hPASK Activity
The aim of the FRET assay is to determine the inhibition potential of test compounds on targeted kinase. This assay platform provides a homogenous screening method for measuring kinase activity by quantitating the amount of phospho-substrate in solution following a kinase reaction.
In the presence of kinase and ATP, the Ulight-peptide is phosphorylated and captured by an anti-phospho-substrate antibody, which brings the Eu chelate donor and Ulight acceptor dyes into close proximity.
Titration of kinase at 1 mM ATP was achieved via the following protocol. […] The contents of the plate were incubated at RT for 1 h. The reaction was stopped by adding 5 μl of stop solution to each test well followed by mixing and incubation at RT for 10 minutes. 5 μl of detection mix (detection antibody diluted in detection buffer) was added; the contents of the plate were mixed and then incubated in the dark for 1 hour at RT. […] The results were graphed to calculate the EC50.
Titration of ATP at the EC50 concentration of kinase to determine ATP Km,app. was performed using the following method. […] The contents of the plate were and incubated at RT for 1 h. The reaction was stopped by adding 5 μl of stop solution to each test well followed by mixing and incubation at RT for 10 minutes. […] (detection antibody diluted in detection buffer) was added; the contents of the plate were mixed and then incubated in the dark for 1 hour at RT. […] The results were graphed to calculate the EC50 as the ATP Km,app.
Compound screening was done via the following method. 10 mM stock solution of test compound in DMSO was prepared by dissolving test compound in DMSO at RT for 1 hour, and then sonicating at 100% output for 8 minutes. If compound is not soluble under this condition, it was diluted to 3 mM. Kinase reaction buffer was prepared containing 10 mM MgCl2, 50 mM HEPES, 1 mM EGTA, 0.01% TWEEN-20, 2 mM DTT. […] As a positive control, 2.5 μl of positive compound was added to assay wells, and 2.5 μl of DMSO to assay wells as vehicle control. Kinase solution was prepared in reaction buffer at 2× final assay concentration. Kinase solution (5 μl) was added to each well of the assay plate. The substrate and ATP solution was prepared in kinase reaction buffer at 4× final assay concentration. The kinase reaction was started by adding 2.5 μl of substrate+ATP mix solution to each well of the assay plate. The plate is mixed on a plate shaker; then covered and allowed to react for 2 hours in the dark at 25° C. without shaking. The reaction was stopped by adding 5 μl of stop solution to each test well followed by mixing and incubation at RT for 10 minutes in the dark. 5 μl of detection mix (detection antibody diluted in detection buffer) was added; the contents of the plate were mixed and then incubated in the dark for 1 hour at RT.

T1 sequence (Q96RG2 999-1251 limits assumed): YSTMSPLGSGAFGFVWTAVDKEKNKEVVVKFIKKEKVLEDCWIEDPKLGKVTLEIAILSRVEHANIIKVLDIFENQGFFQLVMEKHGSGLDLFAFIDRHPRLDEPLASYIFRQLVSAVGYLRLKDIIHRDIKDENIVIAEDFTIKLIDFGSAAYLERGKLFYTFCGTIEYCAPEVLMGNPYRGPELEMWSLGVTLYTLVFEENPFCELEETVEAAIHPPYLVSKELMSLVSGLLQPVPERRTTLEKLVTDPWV

Structure (SMILES) | IC50 [µM]
CC(C)N(C)c1nc2cc(C(=O)O)ccc2nc1-c1coc2ccccc12 [Example 1, 2-(Benzofuran-3-yl)-3-(isopropyl(methyl)amino)quinoxaline-6-carboxylic acid] | < 10
CC(C)N(C)c1nc2cc(C(=O)O)ccc2nc1-c1cn[nH]c1 [Example 2, 3-(Isopropyl(methyl)amino)-2-(1H-pyrazol-4-yl)quinoxaline-6-carboxylic acid] | < 10
CC(C)N(C)c1nc2cc(C(=O)O)ccc2nc1-c1ccc2cn[nH]c2c1 [Example 4, 2-(1H-Indazol-6-yl)-3-(isopropyl(methyl)amino)quinoxaline-6-carboxylic acid] | < 10
CC(C)N(C)c1nc2cc(C(=O)O)ccc2nc1-c1ccc2cnn(C)c2c1 [Example 5, 3-(Isopropyl(methyl)amino)-2-(1-methyl-1H-indazol-6-yl)quinoxaline-6-carboxylic acid] | < 10
COc1ccc2[nH]c(-c3nc4ccc(C(=O)O)cc4nc3N(C)C(C)C)cc2c1 [Example 6, 3-(Isopropyl(methyl)amino)-2-(5-methoxy-1H-indol-2-yl)quinoxaline-6-carboxylic acid] | < 10
CC(C)N(C)c1nc2cc(C(=O)O)ccc2nc1-c1cncc(Br)c1 [Example 7, 2-(5-Bromopyridin-3-yl)-3-(isopropyl(methyl)amino)quinoxaline-6-carboxylic acid] | < 10
CC(C)N(C)c1nc2cc(C(=O)O)ccc2nc1-c1ccc2[nH]ncc2c1 [Example 8, 2-(1H-Indazol-5-yl)-3-(isopropyl(methyl)amino)quinoxaline-6-carboxylic acid] | < 10
CC(C)N(C)c1nc2cc(C(=O)O)ccc2nc1-c1c[nH]nc1C(F)(F)F [Example 9, 3-(Isopropyl(methyl)amino)-2-(3-(trifluoromethyl)-1H-pyrazol-4-yl)quinoxaline-6-carboxylic acid] | < 10
CC(C)N(C)c1nc2cc(C(=O)O)ccc2nc1-c1ccc(NC(=O)OC(C)(C)C)nc1 [Example 10, 2-(6-(tert-Butoxycarbonylamino)pyridin-3-yl)-3-(isopropyl(methyl)amino)quinoxaline-6-carboxylic acid] | < 10
CC(C)N(C)c1nc2cc(C(=O)O)ccc2nc1-c1ccnc(F)c1 [Example 11, 2-(2-Fluoropyridin-4-yl)-3-(isopropyl(methyl)amino)quinoxaline-6-carboxylic acid] | < 10
CC(C)N(C)c1nc2cc(C(=O)O)ccc2nc1-c1ccc(N2CCCC2)nc1 [Example 12, 3-(Isopropyl(methyl)amino)-2-(6-(pyrrolidin-1-yl)pyridin-3-yl)quinoxaline-6-carboxylic acid] | > 10
CC(C)N(C)c1nc2cc(C(=O)O)ccc2nc1-c1ccc(F)nc1 [Example 13, 2-(6-Fluoropyridin-3-yl)-3-(isopropyl(methyl)amino)quinoxaline-6-carboxylic acid] | < 10
CC(C)N(C)c1nc2cc(C(=O)O)ccc2nc1-c1ccc(N)nc1 [Example 16, 2-(6-Aminopyridin-3-yl)-3-(isopropyl(methyl)amino)quinoxaline-6-carboxylic acid] | < 10
COc1ccc2oc(-c3nc4ccc(C(=O)O)cc4nc3N(C)C(C)C)cc2c1 [Example 17, 3-(Isopropyl(methyl)amino)-2-(5-methoxybenzofuran-2-yl)quinoxaline-6-carboxylic acid] | < 10
CC(C)N(C)c1nc2cc(C(=O)O)ccc2nc1-c1ccc2c(c1)OCCCO2 [Example 20, 2-(3,4-Dihydro-2H-benzo[b][1,4]dioxepin-7-yl)-3-(isopropyl(methyl)amino)quinoxaline-6-carboxylic acid] | < 10
CC(C)N(C)c1nc2cc(C(=O)O)ccc2nc1-c1cc2cc(F)ccc2s1 [Example 24, 2-(5-Fluorobenzo[b]thiophen-2-yl)-3-(isopropyl(methyl)amino)quinoxaline-6-carboxylic acid] | < 10
CC(C)N(C)c1nc2cc(C(=O)O)ccc2nc1-c1ccc2c(cnn2C)c1 [Example 25, 3-(Isopropyl(methyl)amino)-2-(1-methyl-1H-indazol-5-yl)quinoxaline-6-carboxylic acid] | < 10
CCn1ncc2cc(-c3nc4ccc(C(=O)O)cc4nc3N(C)C(C)C)ccc21 [Example 26, 2-(1-Ethyl-1H-indazol-5-yl)-3-(isopropyl(methyl)amino)quinoxaline-6-carboxylic acid] | < 10
CCN(CC)c1nc2cc(C(=O)O)ccc2nc1-c1cc2ccccc2o1 [Example 27, 2-(1-Benzofuran-2-yl)-3-(diethylamino)quinoxaline-6-carboxylic acid] | < 10
CN(c1nc2cc(C(=O)O)ccc2nc1-c1ccc2[nH]ncc2c1)C1CC1 [Example 29, 3-(Cyclopropyl(methyl)amino)-2-(1H-indazol-5-yl)quinoxaline-6-carboxylic acid] | < 10
CC(C)N(C)c1nc2cc(C(=O)O)ccc2nc1-c1ccc2occc2c1 [Example 30, 2-(1-Benzofuran-5-yl)-3-[methyl(propan-2-yl)amino]quinoxaline-6-carboxylic acid] | < 10
CC(C)N(C)c1nc2cc(C(=O)O)ccc2nc1-c1cc2ccc(Cl)cc2o1 [Example 31, 2-(6-Chloro-1-benzofuran-2-yl)-3-[methyl(propan-2-yl)amino]quinoxaline-6-carboxylic acid] | < 10
C[C@H]1CCCN1c1nc2cc(C(=O)O)ccc2nc1-c1cc2ccc(F)cc2o1 [Example 32, (S)-2-(6-Fluorobenzofuran-2-yl)-3-(2-methylpyrrolidin-1-yl)quinoxaline-6-carboxylic acid] | < 10
CC(C)N(C)c1nc2cc(C(=O)O)ccc2nc1-c1cc2cc(F)c(F)cc2o1 [Example 33, 2-(5,6-Difluorobenzofuran-2-yl)-3-(isopropyl(methyl)amino)quinoxaline-6-carboxylic acid] | < 10
C[C@H]1CCCN1c1nc2cc(C(=O)O)ccc2nc1-c1ccc2c(c1)OC(F)(F)O2 [Example 34, (S)-2-(2,2-Difluorobenzo[d][1,3]dioxol-5-yl)-3-(2-methylpyrrolidin-1-yl)quinoxaline-6-carboxylic acid] | < 10
O=C(O)c1ccc2nc(-c3ccc4[nH]ncc4c3)c(N3CCCCC3)nc2c1 [Example 35, 2-(1H-Indazol-5-yl)-3-(piperidin-1-yl)quinoxaline-6-carboxylic acid] | < 10
O=C(O)c1ccc2nc(-c3ccc4[nH]ncc4c3)c(N3CCCCCC3)nc2c1 [Example 36, 3-(Azepan-1-yl)-2-(1H-indazol-5-yl)quinoxaline-6-carboxylic acid] | < 10
O=C(O)c1ccc2nc(-c3ccc4[nH]ccc4c3)c(N3CCCCCC3)nc2c1 [Example 37, 3-(Azepan-1-yl)-2-(1H-indol-5-yl)quinoxaline-6-carboxylic acid] | < 10
CCN(CC)c1nc2cc(C(=O)O)ccc2nc1-c1ccc2[nH]ccc2c1 [Example 38, 3-(Diethylamino)-2-(1H-indol-5-yl)quinoxaline-6-carboxylic acid] | < 10
O=C(O)c1ccc2nc(-c3cc4cc(F)ccc4o3)c(N3CCCCCC3)nc2c1 [Example 39, 3-(Azepan-1-yl)-2-(5-fluorobenzofuran-2-yl)quinoxaline-6-carboxylic acid] | < 10
